Data published in PubChem BioAssay AID686920 (Broad Institute, 2013).

Test system: A673 NR0B1-luciferase reporter, viability-normalised luminescence
Test: NR0B1 reporter signal reduction in A673 cells – cell-based, luciferase luminescence, cherry-pick, EWS/Fli inhibitor project, dose response (AID 686920)

**Q.** How did the AC35 turn out when `Cc1ccc2nc(-c3ccccc3)nn2c1` was run?
**A.** Its AC35 is 4.49 µM.

**Q.** With `COc1cc(/C=C/C(=O)/C=C(O)/C=C/c2ccc(O)c(OC)c2)ccc1O` as the compound, how does the AC35 read?
**A.** The AC35 was 5.92 µM.

**Q.** For `C[C@@H]1CN([C@H](C)CO)C(=O)CCCn2nncc2CO[C@H]1CN(C)Cc1ccc(Oc2ccccc2)cc1`, which AC35 is on record?
**A.** Its AC35 is 34.1 µM.

**Q.** With `C[C@H](CO)N1C[C@H](C)[C@H](CN(C)CC2CCCCC2)Oc2ccc(NC(=O)Nc3cccc4ccccc34)cc2C1=O` as the compound, how does the AC35 read?
**A.** The AC35 was 43.3 µM.

**Q.** `Nc1nc(N)c2cc(Sc3ccc4ccccc4c3)ccc2n1` was tested. Which AC35 did it give?
**A.** The AC35 was 2.1 µM.

**Q.** How did the AC35 turn out when `CCc1ccc(/C=C2\SC(=S)N(CCCC(=O)NC3=NCCS3)C2=O)cc1` was run?
**A.** The AC35 was 0.588 µM.

**Q.** `N#C[C@H]1[C@H](c2ccc(-c3ccccc3F)cc2)[C@@H](CO)N1C(=O)c1ccccn1` was tested. Which AC35 did it give?
**A.** The AC35 was 9.49 µM.

**Q.** Which AC35 does the source give for `Cc1ccc2c(c1)C(=O)N1[C@H]3c4cc(Br)ccc4OC[C@@H]3[C@H](c3ccccc3)[C@]1(C)C(=O)N2` here?
**A.** Its AC35 is 13.7 µM.

**Q.** For `COc1cc2c(cc1NC(=O)CN(C)Cc1ccc(OC)c(OC)c1)oc1ccccc12`, which AC35 is on record?
**A.** The AC35 was 8.33 µM.

**Q.** `Cc1[nH][nH]c(=O)c1C(c1c(C)[nH][nH]c1=O)c1cn(Cc2ccc(Cl)c(Cl)c2)c2ccccc12` was tested. Which AC35 did it give?
**A.** Its AC35 is 4.99 µM.

**Q.** Which AC35 does the source give for `COc1ccc(/C=C/C(=O)c2cc(F)ccc2OC(=O)c2ccccc2OC)cc1OC` here?
**A.** The AC35 was 1.59 µM.

**Q.** How did the AC35 turn out when `Cn1ccc2cc(-c3ccc4ncnc(NCc5cccs5)c4c3)ccc21` was run?
**A.** The AC35 was 4.12 µM.

**Q.** With `C[C@@H]1CN([C@H](C)CO)C(=O)c2cc(N(C)C)ccc2O[C@H]1CN(C)Cc1ccc(C(=O)Nc2ccccc2N)cc1` as the compound, how does the AC35 read?
**A.** Its AC35 is 9.4 µM.

**Q.** How did the AC35 turn out when `CCc1ccc(/C=C2\SC(=S)N(CCCC(=O)NCCCN3CCOCC3)C2=O)cc1` was run?
**A.** The AC35 was 1.98 µM.

**Q.** `CCCN1C/C(=C/c2ccc3c(c2)OCO3)C(=O)/C(=C/c2ccc3c(c2)OCO3)C1` was tested. Which AC35 did it give?
**A.** The AC35 was 3.4 µM.

**Q.** With `C[C@H]1CN([C@@H](C)CO)S(=O)(=O)c2ccc(C#Cc3ccncc3)cc2O[C@@H]1CN(C)S(=O)(=O)c1ccccc1` as the compound, how does the AC35 read?
**A.** The AC35 was 24.4 µM.

**Q.** For `COc1ccc(/C=C2\Oc3ccccc3C2=O)cc1`, which AC35 is on record?
**A.** The AC35 was 8.51 µM.

**Q.** With `c1ccc(Nc2nnc(-c3ccc4c(c3)OCO4)o2)cc1` as the compound, how does the AC35 read?
**A.** The AC35 was 3.06 µM.

**Q.** With `CCN1C/C(=C/c2ccc(N3CCOCC3)cc2)C(=O)/C(=C/c2ccc(N3CCOCC3)cc2)C1` as the compound, how does the AC35 read?
**A.** Its AC35 is 5.5 µM.

**Q.** How did the AC35 turn out when `O=C1CCC2S/C(=C/Nc3ccc(C(F)(F)F)cc3)C(=O)N12` (configuration not stated) was run?
**A.** The AC35 was 0.385 µM.

**Q.** Which AC35 does the source give for `CC(=O)c1ccc(NC(=O)c2noc3c2CCC3)cc1` here?
**A.** Its AC35 is 3.06 µM.

**Q.** For `C(=Cc1nc2ccccc2o1)c1ccc2c(c1)OCO2`, which AC35 is on record?
**A.** The AC35 was 4.5 µM.

**Q.** `Cc1ccc(C(=O)O/N=C(\N)c2ccccn2)cc1` was tested. Which AC35 did it give?
**A.** The AC35 was 9.92 µM.

**Q.** For `O=C(Nc1cccc(S(=O)(=O)N2CCCC2)c1)c1ccc(Cl)nc1`, which AC35 is on record?
**A.** The AC35 was 8.45 µM.

**Q.** `COc1ccc(/C=C(/C(=O)c2cccs2)N2C=CC=CC2=C(C#N)C#N)cc1` was tested. Which AC35 did it give?
**A.** The AC35 was 37.2 µM.

**Q.** Which AC35 does the source give for `COc1ccc(/C=C2\SC(=S)N(CCCC(=O)NNC(=O)c3ccccc3O)C2=O)cc1` here?
**A.** The AC35 was 9.15 µM.

**Q.** `C[C@H]1CCCCO[C@H](CN(C)Cc2ccc(C(F)(F)F)cc2)[C@@H](C)CN([C@@H](C)CO)C(=O)c2cc(NC(=O)Nc3ccccc3)ccc2O1` was tested. Which AC35 did it give?
**A.** Its AC35 is 19.4 µM.

**Q.** `O=C(N/N=C/c1cccs1)c1n[nH]c2c1CCCC2` was tested. Which AC35 did it give?
**A.** The AC35 was 4.03 µM.

**Q.** For `C[C@@H]1O[C@@H](O[C@@H]2C=C3CC[C@@H]4C(CC[C@]5(C)[C@@H](c6ccc(=O)oc6)CC[C@]45O)[C@@]3(C)CC2)[C@H](O)[C@H](O)[C@H]1O` (some centres not stated), which AC35 is on record?
**A.** Its AC35 is < 0.03 µM.

**Q.** How did the AC35 turn out when `C[C@H]1CN([C@@H](C)CO)C(=O)c2cc(NS(=O)(=O)c3ccc(Cl)cc3)ccc2O[C@H]1CN(C)Cc1ccc(C(=O)Nc2ccccc2N)cc1` was run?
**A.** The AC35 was 14.5 µM.

**Q.** For `COC(=O)C[C@@H]1CC[C@@H]2[C@H](COc3ccc(NC(=O)c4cc(C)on4)cc3C(=O)N2C)O1`, which AC35 is on record?
**A.** The AC35 was 7 µM.

**Q.** How did the AC35 turn out when `COc1ccc2oc(C(=O)NCCc3ccccc3)c(C)c2c1` was run?
**A.** The AC35 was 6.25 µM.

**Q.** Which AC35 does the source give for `Cc1ccccc1S(=O)(=O)N1CC[C@@H]2[C@@H](CO)Nc3ccc(-c4ccc(C#N)cc4)cc3[C@@H]21` here?
**A.** Its AC35 is 5.42 µM.

**Q.** How did the AC35 turn out when `CC1(C)N=C(N)N=C(N)N1c1ccc(OCCCOc2ccccc2)c(Cl)c1` was run?
**A.** Its AC35 is 2.61 µM.

**Q.** Which AC35 does the source give for `CCN1CCS/C1=C\C=C\C1=[N+](CC)CCS1` here?
**A.** The AC35 was 12.3 µM.

**Q.** For `CC(=O)N1CCCC(c2cc(C(=O)Nc3ccccc3)no2)C1` (configuration not stated), which AC35 is on record?
**A.** Its AC35 is 2.06 µM.

**Q.** Which AC35 does the source give for `Cc1cc(C)c2sc(NNC(=O)c3ccc(S(=O)(=O)N4CCc5ccccc5C4)cc3)nc2c1` here?
**A.** The AC35 was 5.12 µM.

**Q.** For `O=C1c2ccccc2C(=O)N1CCCCNc1ccccc1`, which AC35 is on record?
**A.** Its AC35 is 3.44 µM.

**Q.** Which AC35 does the source give for `C[C@@H]1CN([C@@H](C)CO)S(=O)(=O)c2ccc(C#Cc3ccncc3)cc2O[C@H]1CN(C)C(=O)C1CCOCC1` here?
**A.** The AC35 was 49.8 µM.

**Q.** How did the AC35 turn out when `CC(=O)Oc1ccc(-c2ccc(C(=O)Nc3cccc(S(=O)(=O)N4CCOCC4)c3)cc2)cc1` was run?
**A.** Its AC35 is 12.9 µM.

**Q.** `COC1C(C)OC(OC2CC(C)(O)Cc3cc4c(c(O)c32)C(=O)c2c(O)cc3c(c2C4=O)OC2OC3(C)C(O)C(N(C)C)C2O)C(OC)C1(C)OC` (configuration not stated) was tested. Which AC35 did it give?
**A.** Its AC35 is 0.0829 µM.

**Q.** Which AC35 does the source give for `COc1ccc(-c2ccc3c(c2)[C@H]2[C@H](CCN2S(=O)(=O)c2ccc(OC)cc2)[C@@H](CO)N3C)cc1` here?
**A.** The AC35 was 4.45 µM.

**Q.** For `C[C@@H]1CN([C@@H](C)CO)S(=O)(=O)c2ccc(C#Cc3ccncc3)cc2O[C@H]1CN(C)S(=O)(=O)c1ccccc1`, which AC35 is on record?
**A.** Its AC35 is 15.2 µM.

**Q.** For `Cc1ccc(S(=O)(=O)Nc2ccc3c(c2)C(=O)N([C@@H](C)CO)C[C@H](C)[C@@H](CN(C)Cc2ccc(C(F)(F)F)cc2)OCCCC[C@@H](C)O3)cc1`, which AC35 is on record?
**A.** Its AC35 is 10.2 µM.

**Q.** `Cc1ccc(NC(=O)CCN2CCCCC2)cc1` was tested. Which AC35 did it give?
**A.** The AC35 was 26.1 µM.

**Q.** With `C=C1C(=O)OC2C1CCC(C)C1C=CC(=O)C12C` (configuration not stated) as the compound, how does the AC35 read?
**A.** Its AC35 is 15.5 µM.

**Q.** For `O=C(Nc1ccc2c(c1)OCO2)N1C[C@@H]2N[C@H](C1)C2c1ccc(C=Cc2ccccc2)cc1` (some centres not stated), which AC35 is on record?
**A.** The AC35 was 19 µM.

**Q.** `COc1cccc(Sc2ccccc2/C=N/NC(N)=O)c1` was tested. Which AC35 did it give?
**A.** Its AC35 is 2.17 µM.

**Q.** With `CCNC(=O)c1cc2c(c(-c3cccc(-c4cccc(OC)c4)c3)n1)[C@H](CCO)N([S@@](=O)C(C)(C)C)C2` as the compound, how does the AC35 read?
**A.** Its AC35 is 6.78 µM.

**Q.** For `O=C(CCCN1C(=O)S/C(=C\c2ccccc2)C1=O)NNC(=O)c1ccccc1O`, which AC35 is on record?
**A.** The AC35 was 4.38 µM.

**Q.** For `CN(C[C@H]1N[C@@H](CO)[C@@H]1c1ccc(C2=CCCC2)cc1)C(=O)c1cccc(F)c1`, which AC35 is on record?
**A.** The AC35 was 3.48 µM.

**Q.** How did the AC35 turn out when `Cc1ccsc1/C=N/Nc1ccc(C(=O)O)cc1` was run?
**A.** The AC35 was 3.1 µM.

**Q.** How did the AC35 turn out when `COc1ccc(Cn2cc3c(-c4ccc(F)cc4)nnc-3c3cc(OC)c(OC)cc32)cc1` was run?
**A.** Its AC35 is 14.1 µM.

**Q.** With `Cc1cc(-c2nc3cc(F)ccc3s2)ccc1N` as the compound, how does the AC35 read?
**A.** Its AC35 is 8.89 µM.

**Q.** `C/C(=N\Nc1cccc2cccnc12)c1ccccn1` was tested. Which AC35 did it give?
**A.** The AC35 was 19 µM.

**Q.** For `CCCCc1c(-c2ccccc2OC)ncn1Cc1ccc(C(C)(C)C)cc1`, which AC35 is on record?
**A.** Its AC35 is 10 µM.

**Q.** `CN1C2CCC1/C(=C/c1ccccn1)C(=O)/C2=C\c1ccccn1` was tested. Which AC35 did it give?
**A.** The AC35 was 1.87 µM.

**Q.** How did the AC35 turn out when `C[C@@H]1CCCCO[C@H](CN(C)Cc2ccc(C(F)(F)F)cc2)[C@H](C)CN([C@H](C)CO)C(=O)c2cc(NC(=O)CCCN(C)C)ccc2O1` was run?
**A.** The AC35 was 11.9 µM.

**Q.** `C[C@@H]1CN([C@@H](C)CO)C(=O)c2cc(N(C)C)ccc2O[C@H]1CN(C)Cc1ccc(C(=O)Nc2ccccc2N)cc1` was tested. Which AC35 did it give?
**A.** The AC35 was 12.7 µM.

**Q.** `COc1cccc(CN2CCC2(C)C(=O)Nc2cccc3cccnc23)c1F` (configuration not stated) was tested. Which AC35 did it give?
**A.** The AC35 was 14.7 µM.

**Q.** With `COc1ccc(CN(C)C[C@H]2Oc3ccc(NC(=O)CCCCCC(=O)Nc4ccccc4N)cc3CC(=O)N([C@H](C)CO)C[C@H]2C)cc1` as the compound, how does the AC35 read?
**A.** Its AC35 is 15.4 µM.

**Q.** For `COc1cc(OC)cc(-c2cc3nc(C)c(CCC(=O)NCc4ccccc4)c(C)n3n2)c1`, which AC35 is on record?
**A.** The AC35 was 3.44 µM.

**Q.** Which AC35 does the source give for `O=C(NCc1ccc(F)cc1)N1[C@H]2CC[C@@H]1C=C(c1ccc(F)cc1OCc1ccccc1)C2` here?
**A.** Its AC35 is 9.93 µM.

**Q.** Which AC35 does the source give for `Cc1cc(C)cc(C(=O)NC(=S)Nc2ccc(Cc3ccncc3)cc2)c1` here?
**A.** Its AC35 is 7.99 µM.

**Q.** With `Nc1ccc2c(c1)OC1(CCCC1)O2` as the compound, how does the AC35 read?
**A.** The AC35 was 6.63 µM.

**Q.** `CCOc1ccc2nc(NC3=NC(c4ccc(OC)cc4)CC(=O)N3)nc(C)c2c1` (configuration not stated) was tested. Which AC35 did it give?
**A.** The AC35 was 9.3 µM.

**Q.** For `Cc1cc(C)cc(N2C(=O)NC(=O)/C(=C\C=C\c3ccco3)C2=O)c1`, which AC35 is on record?
**A.** The AC35 was 4.31 µM.
